Results as given in patent US4840947A, “Antiinflammatory and analgesic piperidin-4-yl-tetracyclic benzodiazepines and use thereas” (Hoechst-Roussel Pharmaceuticals, Inc., priority 1986, dated 1989).
Like-named read-outs stand apart in the source and are kept apart here.

How the values were obtained:
[1] = test system: carrageenan-induced rat paw edema; test: Inhibition of Carrageenan-Induced Rat Paw Edema; assay type: in vivo; settings: for ED50: po; for Percent Inhibition of carrageenan-induced rat paw edema: at 100 mg/kg, p.o.
[2] = test system: adjuvant-induced polyarthritis in rats; test: Adjuvant-Induced Polyarthritis In Rats; assay type: in vivo, rat (male Charles River-Wistar Lewis); settings: rat, p.o.; for ED50: po; for percent inhibition of paw volume, adjuvant-treated paw / percent inhibition of paw volume, non-injected paw: at 50 mg/kg
Description: This activity was measured by a procedure similar to that described by C.
Groups of 10 male Charles River-Wistar Lewis rats weighing 150 to 175 g were individually housed and maintained on a regular rat chow diet. Water was given ad libitum. The adjuvant was prepared by suspending 75 mg of Mycobacterium butyricum (Difco Laboratories, Detroit, Mich.) in 10 ml of white paraffin oil with continuous stirring for 2 hours at room temperature prior to administration. Test compounds are prepared by suspending the drug in water, adding one drop of Tween 80 per 10 ml of suspension, and homogenizing. The adjuvant suspension (0.1 ml) was injected into the footpad of the left hind paw of the rat. Test compound suspensions were administered orally (10 ml/kg) the day before adjuvant suspension injection and the administration was continued for 21 days. One group of ten rats was used for the test drug. Standard, adjuvant-injected control and non-injected control groups are run along with the test drug. Control animals received vehicle (10 ml/kg). Three doses of test drug and one dose of standard preparation were used. Injected and non-injected paw volumes were determined on the day the adjuvant suspension was given, and on subsequent days thereafter (usually days 5, 10, 18, and 21) by the method of C. A. Winter, et al., Proc. Soc.
The percent inhibition of paw volume (injected and non-injected hind paw) was calculated by the following formula: [formula]

[3] = test system: 2-phenyl-1,4-benzoquinone induced writhing in mice; test: Phenylquinone Induced Writhing in Mice (2-phenyl-1,4-benzoquinone, analgesia); assay type: in vivo, mouse; settings: for Percent Inhibition of phenylquinone induced writhing: at 20 mg/kg; for ED50: Mus musculus, sc, read-out: ED50, inhibition of phenylquinone induced writhing
[4] = adjuvant-treated (injected) paw, read-out: ED50 (50% inhibition of paw volume), adjuvant-treated paw
[5] = non-injected paw, read-out: ED50 (50% inhibition of paw volume), non-injected paw
[6] = adjuvant-treated (injected) paw

SMILES | ED50 [2, 4] [mg/kg] | ED50 [2, 5] [mg/kg] | Percent Inhibition of phenylquinone induced writhing ([3]; mice, s.c.) [%] | Percent Inhibition of carrageenan-induced rat paw edema [1] [%] | further results
CCO.CN1CCC(C2Nc3ccccc3N3CCc4cccc2c43)CC1.O=C(O)/C=C/C(=O)O (stereo not shown) [6-(1-Methylpiperidin-4-yl)-1,2,6,7-tetrahydrobenzo[b]pyrrolo[3,2,1-jk][1,4]benzodiazepine fumarate ethanolate] | 73.6 | 18.5 | 51 | – | ED50 [1]: 41.5 mg/kg
CN1CCC(C2Nc3cc(Br)ccc3N3CCc4cccc2c43)CC1 (stereo not shown) [9-Bromo-6-(1-methylpiperidin-4-yl)-1,2,6,7-tetrahydrobenzo[b]pyrrolo[3,2,1-jk][1,4]benzodiazepine] | 112 | 3.6 | – | 40 | –
CCO.CN1CCC(C2Nc3ccccc3N3CCc4cc(Br)cc2c43)CC1 (stereo not shown) [4-Bromo-6-(1-methylpiperidin-4-yl)-1,2,6,7-tetrahydrobenzo[b]pyrrolo[3,2,1-jk][1,4]benzodiazepine ethanolate] | – | – | 47 | – | –
CN1CCC(C2Nc3cc(F)ccc3N3CCc4cccc2c43)CC1 (stereo not shown) [9-Fluoro-6-(1-methylpiperidin-4-yl)-1,2,6,7-tetrahydrobenzo[b]pyrrolo[3,2,1-jk][1,4]benzodiazepine] | – | – | 35 | – | percent inhibition of paw volume, adjuvant-treated paw [2, 6]: 48%; percent inhibition of paw volume, non-injected paw ([2]; non-injected paw): 116%
CN1CCC(C2c3cccc4c3N(CC4)c3ccccc3N2C=O)CC1.O=CO (stereo not shown) [7-Formyl-6-(1-methylpiperidin-4-yl)-1,2,6,7-tetrahydrobenzo[b]pyrrolo[3,2,1-jk][1,4]benzodiazepine formate] | – | – | – | – | ED50 ([3]; mice, s.c.): 0.9 mg/kg
CN1CCC(C2Nc3ccccc3N3CCCc4cccc2c43)CC1 (stereo not shown) [7-(1-Methyl-4-piperidinyl)-2,3,7,8-tetrahydro-1H-quino[1,8-ab][1,5]benzodiazepine hemifumarate hemihydrate] | – | – | 27 | 21 | percent inhibition of paw volume, adjuvant-treated paw [2, 6]: 39%; percent inhibition of paw volume, non-injected paw ([2]; non-injected paw): 79%
CN1CCC(C2c3cccc4c3N(CC4)c3ccccc3N2C(=O)OCC(Cl)(Cl)Cl)CC1 (stereo not shown) [6-(1-Methylpiperidin-4-yl)-1,2,6,7-tetrahydrobenzo[b]pyrrolo[3,2,1-jk][1,4]benzodiazepine-7-carboxylic acid, 2,2,2-trichloroethyl ester] | – | – | – | 44 | –
CN1CCC(C2c3cccc4c3N(CC4)c3ccccc3N2C)CC1 (stereo not shown) [7-Methyl-6-(1-methylpiperidin-4-yl)-1,2,6,7-tetrahydrobenzo[b]pyrrolo[3,2,1-jk][1,4]benzodiazepine] | – | – | – | – | ED50 ([3]; mice, s.c.): 2.6 mg/kg
CCCCC1C(=O)N(c2ccccc2)N(c2ccccc2)C1=O [Phenylbutazone, reference compound] | 14 | 9.4 | – | – | ED50 [1]: 50 mg/kg
CCC(=O)O[C@](Cc1ccccc1)(c1ccccc1)[C@H](C)CN(C)C [Propoxyphene, reference compound] | – | – | – | – | ED50 [3]: 3.9 mg/kg
